Test results from patent publication US20250090563A1, “COMPOSITION FOR PREVENTION, AMELIORATION OR TREATMENT OF INFLAMMATORY BOWEL DISEASE COMPRISING GALACTO-OLIGOSACCHARIDE” (NEO CREMAR CO., LTD., priority 2022, published 2025).

What was measured:
[1] = test system: mice with DSS-induced colitis; experiment: Disease activity index (DAI) in DSS-induced acute colitis model; format: in vivo, BALB/c mice
Experimental: For use in this experiment, female BALB/c mice (7 weeks old) were purchased from Saeronbio Inc. (Gyeonggi-do, Korea) and acclimatized for 7 days under SPF conditions at Kyonggi University (temperature 23±2° C., humidity 50±5%, 12-hour light/dark cycle). All experiments adhered to the guidelines of the university's Animal Ethics Committee. An acute colitis model was induced using dextran sodium sulfate (DSS). Mice were divided into seven groups of seven mice each. 1) A normal control group received purified water orally for 28 days. 2) A colitis group received purified water for 28 days and 5% DSS solution freely from days 21 to 28 to induce colitis. […] On the 29th day, each mouse was sacrificed, and the length of the colon and small intestine and the weight of the spleen were measured and evaluated. […] During the DSS treatment, colitis severity was determined using the disease activity index (DAI), which measures weight loss, stool consistency, rectal bleeding, and perianal blood presence according to the criteria in Table 3. After monitoring with the naked eye every two days for eight days, the scores were summed and calculated. […]

[2] = test system: mice with DSS-induced colitis; experiment: Colon length in DSS-induced acute colitis model; format: in vivo, BALB/c mice
Experimental: For use in this experiment, female BALB/c mice (7 weeks old) were purchased from Saeronbio Inc. (Gyeonggi-do, Korea) and acclimatized for 7 days under SPF conditions at Kyonggi University (temperature 23±2° C., humidity 50±5%, 12-hour light/dark cycle). All experiments adhered to the guidelines of the university's Animal Ethics Committee. An acute colitis model was induced using dextran sodium sulfate (DSS). Mice were divided into seven groups of seven mice each. 1) A normal control group received purified water orally for 28 days. 2) A colitis group received purified water for 28 days and 5% DSS solution freely from days 21 to 28 to induce colitis. […] In addition, to colitis-induced mice, the galacto-oligosaccharides from 5) company A and 6) company B were each administered at a dose of 800 mg/kg for 28 days while 7) the positive control group was administered 100 mg/kg of the anti-inflammatory agent 5-ASA (5-aminosalicylic acid) for 28 days. On the 29th day, each mouse was sacrificed, and the length of the colon and small intestine and the weight of the spleen were measured and evaluated. After measurement, the colon tissue was cut into 1 cm lengths, and the cecum was excised and placed into separate Ep. tubes for storage in a deep freezer for future experiments. Portions of the remaining colon tissue were fixed in a 4% formalin solution. […]

IL-6 = IL-6 level in colon tissue of DSS-induced colitis mice; format: in vivo, BALB/c mice
Experimental: (§1) Mice were divided into seven groups of seven mice each. 1) A normal control group received purified water orally for 28 days. 2) A colitis group received purified water for 28 days and 5% DSS solution freely from days 21 to 28 to induce colitis. The galacto-oligosaccharide of the present disclosure was administered at a dose of 3) 400 mg/kg and 4) 800 mg/kg to two groups of colitis-induced mice, respectively, for 28 days. In addition, to colitis-induced mice, the galacto-oligosaccharides from 5) company A and 6) company B were each administered at a dose of 800 mg/kg for 28 days while 7) the positive control group was administered 100 mg/kg of the anti-inflammatory agent 5-ASA (5-aminosalicylic acid) for 28 days. On the 29th day, each mouse was sacrificed, and the length of the colon and small intestine and the weight of the spleen were measured and evaluated. After measurement, the colon tissue was cut into 1 cm lengths, and the cecum was excised and placed into separate Ep. tubes for storage in a deep freezer for future experiments. […]
(§2) First, colon tissue samples were suspended in PBS containing a protease inhibitor (Roche Diagnostics Corp., Indianapolis, IN, USA) and homogenized uniformly using a TaKaRa BioMasher (Takara Bio Inc., Shiga, Japan). […] Protein concentration was quantified using a bicinchoninic acid kit (Thermo Scientific, Waltham, MA, USA).

TNF-α = TNF-α level in colon tissue of DSS-induced colitis mice; format: in vivo, BALB/c mice
Experimental: as §1, §2

myeloperoxidase (MPO) = experiment: MPO level in colon tissue of DSS-induced colitis mice; format: in vivo, BALB/c mice; conditions: 100 mg/kg for 28 days (positive control)
Experimental: as §1, §2

[3] = test system: mucin and goblet cells in the colon; experiment: Histological analysis of colon (Alcian blue-PAS staining) in DSS-induced colitis mice; format: in vivo, BALB/c mice; conditions: colon sections, FIG. 9; dose not stated
[4] = test system: intestinal short chain fatty acids; experiment: Short chain fatty acid (SCFA) production in cecum of DSS-induced mice (GC); format: in vivo
Experimental: To determine the effect of administering the galacto-oligosaccharide of the present disclosure on the intestinal short chain fatty acids in DSS-induced mice, 5-ASA and the GOS of the present disclosure were administered at low (7 mg/mouse), medium (14 mg/mouse), and high (21 mg/mouse) concentrations to DSS-induced mice according to the schedule described in Example 3-1. Afterward, the cecums of the mice were collected, homogenized with a homogenizer, and suspended in 80% methanol. The samples were then centrifuged at 13,000 rpm for 10 minutes, diluted to a final concentration of 1 g/mL, and filtered through a 0.45 μm syringe filter. Quantitative analysis of SCFAs was performed by preparing each STD at different concentrations and using 2-ethylbutyric acid as the internal standard (ISTD). The standard curves were calculated based on the peak area ratios. In brief, the SCFA content was measured using gas chromatography (GC) equipped with a DB-FFAP capillary column to determine the production capacity of six SCFAs (acetic acid, propionic acid, butyric acid, valeric acid, caproic acid, and heptanoic acid). The GC analysis conditions were as follows: 100° C. (0.5 min), 100° C.→180° C. (8° C./min), 180° C. (1.0 min), 180° C.→200° C. (20° C./min), 200° C. (5.0 min).

[5] = 100 mg/kg (positive control), DSS colitis mice
[6] = 100 mg/kg for 28 days (positive control), 5% DSS days 21-28
[7] = 100 mg/kg for 28 days (positive control), DSS colitis
[8] = PC, dose 100 mg/kg, DSS-induced mice

Structure (SMILES): Nc1ccc(O)c(C(=O)O)c1 [5-ASA, 5-aminosalicylic acid]
- Colitis amelioration effect (DAI), in words [1, 5]: did not show any colitis amelioration effect
- Disease Activity Index of 8 day (Score) [1, 6]: 10.3 Score
- Inhibition of the reduction of colon length, in words [2, 5]: showed an efficacy in inhibiting the reduction of colon length
- Colon length [2, 6]: 5.2 cm
- Level of IL-6 versus DSS group, in words (IL-6; [5]): greatly reduced
- IL-6 (IL-6; [7]): 12 pg/mg
- Level of TNF-α versus DSS group, in words (TNF-α; [5]): greatly reduced
- TNF-α (TNF-α; [7]): 100 pg/mg
- MPO (myeloperoxidase (MPO)): 45 pg/mg
- Amount of mucin (Alcian blue-PAS) compared to the DSS-treated group [3]: the amount of mucin recovered
- Goblet cells compared to the DSS-treated group [3]: goblet cells were observed
- All SCFAs except acetic acid compared to the NC treated with 5% DSS alone, in words ([4]; PC group, cecum): slight increase
- Acetic acid, share of total SCFA (value in parentheses) [4, 8]: 73.3
- Acetic acid, short chain fatty acid production in cecum [4, 8]: 8917 µM
- Butyric acid, share of total SCFA (value in parentheses) [4, 8]: 15.8
- Butyric acid, short chain fatty acid production in cecum [4, 8]: 1923 µM
- Propionic acid, share of total SCFA (value in parentheses) [4, 8]: 10.9
- Propionic acid, short chain fatty acid production in cecum [4, 8]: 1321 µM
- Total SCFA, share of total SCFA (value in parentheses) [4, 8]: 100
- Total SCFA, short chain fatty acid production in cecum [4, 8]: 12161 µM
